Among the test systems are A549; COLO 205; HCT-116; HCT-15; Hs-578T; K562; M14; MOLT-4; Malme-3M; NCI-H226; NCI-H522; OVCAR-3; PC-3; SK-OV-3; SR; T47D; U-251; UACC-62; UO-31.
Test in all cases: inhibition of tumour cell growth, NCI panel, 48 h

The record followed here is ChEMBL document CHEMBL1201862, “PubChem BioAssay data set” (2004).

The structures appear in SMILES notation.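 Dose response: 5 concentrations. Exposure: 48 h. Format: 96-well plates. Endpoint: linear interpolation; highest concentration if not reached. GI50 marks 50% less growth.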 Calls of active or inactive are those of the source. No stated cut-off is given here; in the data, active = GI50 up to about 1.1 µM and inactive = higher.

For the molecule `COc1ccc2c(c1OC)C(Br)CCC(Br)(Br)C2=O` (centres undefined), the GI50 is 13.6 µM (inactive) with A549; 3.02 µM (inactive) in the test on COLO 205; 4.9 µM (inactive) in the test with HCT-116; 5.57 µM with HCT-15; 18.5 µM (inactive) in the test with Hs-578T; 2.79 µM (inactive) in the test on K562. In addition, the GI50 is 5.25 µM (inactive) in the test on M14; 1.75 µM (inactive) in the test on MOLT-4; 10.7 µM (inactive) in the test on Malme-3M; 14 µM (inactive) in the test on NCI-H226; 1.58 µM (inactive) with NCI-H522; 15.8 µM (inactive) with OVCAR-3. In addition, the GI50 is 11.9 µM (inactive) in the test with PC-3; 16.4 µM (inactive) with SK-OV-3; 1.27 µM (inactive) in the test with SR; 13.8 µM (inactive) in the test on T47D; 16.7 µM (inactive) in the test on U-251; 14.6 µM (inactive) with UACC-62. Further, the GI50 in the test with UO-31 is 4.81 µM (inactive).

For `CC(=O)Nc1ccc(NC(=O)CC(=O)Nc2ccc(NC(C)=O)cc2)cc1`, the GI50 in the test on A549 is > 100 µM (inactive); in the test with COLO 205, > 100 µM (inactive); in the test on HCT-116, > 100 µM (inactive); in the test on HCT-15, 25.8 µM; in the test on Hs-578T, > 100 µM (inactive); with K562 it was > 100 µM (inactive). The GI50 with M14, in the test on MOLT-4, in the test on Malme-3M, with NCI-H226, with NCI-H522 and in the test with OVCAR-3 was > 100 µM (inactive) each time. The GI50 is > 100 µM (inactive) with PC-3; 20.2 µM (inactive) in the test on SK-OV-3; > 100 µM (inactive) in the test with SR; 32 µM (inactive) in the test on T47D; 32.1 µM (inactive) in the test on U-251; 5.74 µM (inactive) in the test with UACC-62. In addition, the GI50 in the test with UO-31 was > 100 µM (inactive).

As for `Oc1ccc(Cl)cc1Sc1cc(Cl)ccc1O` [FENTICLOR], the GI50 was 26.8 µM (inactive) with A549; 20.7 µM (inactive) in the test with COLO 205; 7.11 µM (inactive) with HCT-116; 8.65 µM in the test on HCT-15; 4.98 µM (inactive) with Hs-578T; 8.34 µM (inactive) in the test on K562. The GI50 with M14 was 12.9 µM (inactive); in the test with MOLT-4, 7.53 µM (inactive); with Malme-3M, 6.67 µM (inactive); with NCI-H226, 20.5 µM (inactive); with NCI-H522, 3.1 µM (inactive); in the test with OVCAR-3 it was 3.75 µM (inactive). Moreover, the GI50 was 15.3 µM (inactive) in the test on PC-3; 20.5 µM (inactive) in the test with SK-OV-3; 17.1 µM (inactive) in the test with SR; 5.85 µM (inactive) in the test with T47D; 8.53 µM (inactive) with U-251; 5.66 µM (inactive) in the test with UACC-62. The GI50 in the test with UO-31 is 6.78 µM (inactive).

For `O=C1c2cccc3cc4ccccc4c(c23)C(=O)N1CCCNCCNCCCN1C(=O)c2cccc3cc4ccccc4c(c23)C1=O`, the GI50 in the test with A549 is 0.0133 µM (active); in the test with COLO 205 it was 0.0316 µM (active); in the test with HCT-116, < 0.0191 µM (active); in the test on HCT-15 it was 0.103 µM; in the test with Hs-578T, 0.0635 µM (active); in the test on K562 it was < 0.01 µM (active). Moreover, the GI50 in the test with M14 was 0.177 µM (active); in the test with MOLT-4, < 0.01 µM (active); in the test with Malme-3M it was 0.211 µM (active); in the test on NCI-H226 it was 0.411 µM (active); with NCI-H522, < 0.01 µM (active); in the test on OVCAR-3, 0.353 µM (active). The GI50 in the test with PC-3 is 0.152 µM (active); in the test with SK-OV-3 it was 0.31 µM (active); with SR it was < 0.01 µM (active); in the test on T47D it was 0.421 µM (active); in the test with U-251, 0.0264 µM (active); with UACC-62, 0.0575 µM (active). In addition, in the test on UO-31, the GI50 is 0.33 µM (active).

As to `COC(=O)C1Cc2c(C)cccc2C1=O` (centres undefined), the GI50 in the test on A549 was > 100 µM (inactive); in the test on COLO 205, > 100 µM (inactive); in the test on HCT-116, > 100 µM (inactive); with HCT-15 it was over 100 µM; in the test with Hs-578T it was > 100 µM (inactive); with K562, 66.7 µM (inactive). In addition, the GI50 with M14, in the test with MOLT-4, with Malme-3M, in the test with NCI-H226, in the test on NCI-H522 and in the test with OVCAR-3 was > 100 µM (inactive) in each case. In addition, the GI50 in the test with PC-3 was > 100 µM (inactive); in the test with SK-OV-3, > 100 µM (inactive); in the test on SR it was 50.8 µM (inactive); in the test on T47D, > 100 µM (inactive); in the test with U-251, > 100 µM (inactive); with UACC-62, > 100 µM (inactive). The GI50 in the test on UO-31 was > 100 µM (inactive).

For `Cc1nc2[nH]ccn2c(=O)c1CCCl`, the GI50 was 45.5 µM (inactive) in the test on A549; 38.7 µM (inactive) with COLO 205; 17 µM (inactive) in the test with HCT-116; 39.7 µM in the test on HCT-15; 37.6 µM (inactive) in the test on Hs-578T; 22.9 µM (inactive) in the test with K562. The GI50 in the test on M14 is 31.8 µM (inactive); in the test on MOLT-4, 14.8 µM (inactive); in the test on Malme-3M, 25.6 µM (inactive); in the test with NCI-H226, > 100 µM (inactive); with NCI-H522, 20.7 µM (inactive); in the test with OVCAR-3 it was 25.2 µM (inactive). Also, the GI50 is 49.7 µM (inactive) with PC-3; 26.5 µM (inactive) with SK-OV-3; 24.2 µM (inactive) with SR; 91 µM (inactive) with T47D; 20.9 µM (inactive) in the test on U-251; 24.8 µM (inactive) in the test on UACC-62. For the same molecule, the GI50 in the test with UO-31 was 33 µM (inactive).

For `O=C1CCCc2cc3c(cc21)CC1(C3)Cc2ccc3c(c2C1)C(=O)CCC3` (centres undefined), the GI50 in the test with A549 is 21.1 µM (inactive); in the test on COLO 205 it was 14.4 µM (inactive); in the test with HCT-116, 12.2 µM (inactive); in the test on HCT-15, 45.2 µM; in the test on Hs-578T, 65.6 µM (inactive); with K562, 3.31 µM (inactive). Moreover, the GI50 is 12.7 µM (inactive) in the test on M14; 4.12 µM (inactive) with MOLT-4; 9.4 µM (inactive) with Malme-3M; 6.38 µM (inactive) with NCI-H226; 20.9 µM (inactive) with NCI-H522; 15.9 µM (inactive) in the test with OVCAR-3. The GI50 in the test on PC-3 is 21.7 µM (inactive); in the test on SK-OV-3, > 100 µM (inactive); in the test with SR, 7.45 µM (inactive); with T47D, 24.1 µM (inactive); in the test on U-251 it was 39.2 µM (inactive); with UO-31 it was 32.4 µM (inactive).

As to `Fc1cc2nc3n(c2cc1F)C(c1c(Cl)cccc1Cl)SC3` (centres undefined), the GI50 in the test with A549 is 14.9 µM (inactive); with COLO 205, 18.7 µM (inactive); in the test on HCT-116 it was 12.6 µM (inactive); with HCT-15, 17.5 µM; in the test with Hs-578T, 18.4 µM (inactive); in the test with M14, 15.7 µM (inactive). In addition, the GI50 was 24.4 µM (inactive) in the test with MOLT-4; 17.6 µM (inactive) in the test on Malme-3M; 24.7 µM (inactive) in the test on NCI-H226; 16.9 µM (inactive) with NCI-H522; 13 µM (inactive) with OVCAR-3; 16.3 µM (inactive) in the test on PC-3. The GI50 with SK-OV-3 was 16.5 µM (inactive); with SR, 4.51 µM (inactive); in the test with T47D it was 14.3 µM (inactive); with U-251, 17.1 µM (inactive); with UACC-62 it was 12.6 µM (inactive); with UO-31, 15.8 µM (inactive).

With `COc1ccc2nc3cccc([N+](=O)[O-])c3c(NCCC(=O)O)c2c1`, the GI50 in the test with A549 was > 10 µM (inactive); in the test on COLO 205, 7.59 µM (inactive); in the test with HCT-116 it was > 10 µM (inactive); in the test on HCT-15, over 10 µM; in the test with Hs-578T it was 9.14 µM (inactive); in the test with K562 it was > 10 µM (inactive). Besides, the GI50 in the test with M14 is > 10 µM (inactive); in the test with MOLT-4, 5.22 µM (inactive); in the test on Malme-3M, 4.51 µM (inactive); in the test with NCI-H226, > 10 µM (inactive); with NCI-H522, 4.56 µM (inactive); in the test on OVCAR-3 it was > 10 µM (inactive). Besides, the GI50 in the test on PC-3 is > 10 µM (inactive); with SK-OV-3 it was > 10 µM (inactive); in the test on SR, > 10 µM (inactive); in the test with T47D, 7.5 µM (inactive); in the test with U-251, > 10 µM (inactive); in the test on UACC-62, > 10 µM (inactive).

In the case of `CC1=N[C@](C)(C2CC3C=CC2C3=O)COC1=O` (some centres undefined), the GI50 in the test on A549, in the test on COLO 205, in the test on HCT-116, in the test on Hs-578T, with K562 and with M14 was > 100 µM (inactive) in each case. Moreover, the GI50 in the test with MOLT-4, with Malme-3M, in the test on NCI-H226, in the test with NCI-H522, in the test on OVCAR-3 and with PC-3 was > 100 µM (inactive) throughout. Also, the GI50 in the test with SK-OV-3, in the test on SR, in the test with T47D, with U-251, in the test with UACC-62 and with UO-31 was > 100 µM (inactive) throughout.

On to `C=CCN(c1cc(OCc2ccccc2)c2c(c1)c(C)cn2S(=O)(=O)c1ccccc1)S(C)(=O)=O`, for which the GI50 is > 100 µM (inactive) with A549; > 100 µM (inactive) in the test with COLO 205; > 100 µM (inactive) with HCT-116; over 100 µM with HCT-15; > 100 µM (inactive) in the test on Hs-578T; > 100 µM (inactive) in the test with K562. The GI50 in the test with M14, in the test on MOLT-4, with Malme-3M, in the test with NCI-H226, in the test on NCI-H522 and in the test on OVCAR-3 was > 100 µM (inactive) in each case. For the same molecule, the GI50 with PC-3, in the test on SK-OV-3, in the test on SR, with T47D, in the test on U-251 and in the test on UACC-62 was > 100 µM (inactive) each time.
